The numbers were not newly measured in PubChem BioAssay AID1259410 (Chemical Carcinogenesis Research Information System (CCRIS), 2018), which cites them from elsewhere.

This series concerns rodent tumor promotion studies, tumor incidence. The series is described as follows: CCRIS tumor promotion studies.
The mark [1] stands for this setting: Carcinogen: 7,12-DIMETHYLBENZ(A)ANTHRACENE, Doses [Carcinogen]: TOP, Route [Carcinogen]: DERMAL, Route [Promoter]: DERMAL, Species: MOUSE, Strain/Sex: FEMALE.

Regarding `CN(C)c1ncnc2nc[nH]c12`, the outcome (Carcinogen: DIETHYLNITROSAMINE, 55-18-5, 2-ACETYLAMINOFLUORENE, 53-96-3, CARBON TETRACHLORIDE, 56-23-5, Carcinogen: DIETHYLNITROSAMINE, 55-18-5, 2-ACETYLAMINOFLUORENE, 53-96-3, CARBON TETRACHLORIDE, 56-23-5, Doses [Carcinogen]: 200 MG/KG BW ONCE FOLLOWED 2 WK LATER BY 0.03% 2-ACETYLAMINOFLUORENE IN DIET FOR 2 WK PLUS 2 ML/KG CARBON TETRACHLORIDE, Doses [Promoter]: 0, 0.015% IN DIET FOR 21 WK BEGINNING AT END OF INITIATION PHASE (STUDY DURATION: 25 WK), Route [Carcinogen]: INTRAPERITONEAL, ORAL, Route [Carcinogen]: INTRAPERITONEAL, ORAL, Route [Promoter]: ORAL, Species: RAT, Strain/Sex: WISTAR/MALE) is “liver: hepatocellular carcinoma” and the outcome (Carcinogen: DIETHYLNITROSAMINE, 55-18-5, Doses [Carcinogen]: 200 MG/KG BW ONCE, Doses [Promoter]: 0, 0.005, 0.02% IN DIET FOR 23 WK BEGINNING 2 WK POST CARCINOGEN TREATMENT (STUDY DURATION: 25 WK), Doses [Promoter]: 0, 0.005, 0.02% IN DIET FOR 23 WK BEGINNING 2 WK POST CARCINOGEN TREATMENT (STUDY DURATION: 25 WK), Route [Carcinogen]: INTRAPERITONEAL, Route [Promoter]: ORAL, Species: RAT, Strain/Sex: WISTAR/MALE) is given as “liver: hepatocellular carcinoma”. Regarding `[Cl][Cd][Cl]`, the outcome was “ventral prostate: carcinoma” (Carcinogen: 3,2'-DIMETHYL-4-AMINOBIPHENYL, 13394-86-0, Doses [Carcinogen]: 50 MG/KG BW IN 0.5 ML CORN OIL 1/2 WK FOR 20 WK, Doses [Promoter]: 0, 10 UMOL/KG BW IN SALINE ONCE AT WK 20 (STUDY DURATION: 60 WK), Route [Carcinogen]: SUBCUTANEOUS, Route [Promoter]: INTRAMUSCULAR, Species: RAT, Strain/Sex: F344/MALE) and “ventral prostate: carcinoma” (Carcinogen: 3,2'-DIMETHYL-4-AMINOBIPHENYL, 13394-86-0, Doses [Carcinogen]: 50 MG/KG BW IN 0.5 ML CORN OIL 1/2 WK FOR 20 WK, Doses [Promoter]: 0, 10 UMOL/KG BW IN SALINE ONCE AT WK 20 AND 0, 5 UMOL/KG BW ONCE AT WK 40 (STUDY DURATION: 60 WK), Doses [Promoter]: 0, 10 UMOL/KG BW IN SALINE ONCE AT WK 20 AND 0, 5 UMOL/KG BW ONCE AT WK 40 (STUDY DURATION: 60 WK), Route [Carcinogen]: SUBCUTANEOUS, Route [Promoter]: INTRAMUSCULAR, Species: RAT, Strain/Sex: F344/MALE). With `O=c1cc(-c2ccccc2)oc2ccc3ccccc3c12`, the outcome by setting is: (Carcinogen: (+/-)-TRANS-7,8-DIHYDROBENZO[A]PYRENE-7,8-DIOL, 61443-57-0, Doses [Carcinogen]: 1 UG CO-ADMINISTERED WITH PROMOTER DOSE, Doses [Promoter]: 1 UG INJECTED INTO NEWLY HATCHED SAC-FRY CO-ADMINISTERED WITH CARCINOGEN DOSE (STUDY DURATION: 9 MO), Route [Carcinogen]: INJECTION, Route [Promoter]: INJECTION, Species: FISH, Strain/Sex: RAINBOW TROUT/MALE,FEMALE) “liver: tumor”; (Carcinogen: DIETHYLNITROSAMINE, 55-18-5, Doses [Carcinogen]: 200 MG/KG BW ONCE (STUDY DURATION: 28 WK), Doses [Promoter]: 1% IN DIET FOR 26 WK BEGINNING 2 WK POST LAST CARCINOGEN DOSE, 2/3 PARTIAL HEPATECTOMY PERFORMED AT WEEK 3 (STUDY DURATI, Route [Carcinogen]: INTRAPERITONEAL, Route [Promoter]: ORAL, Species: RAT, Strain/Sex: F344/MALE) “liver: tumor”; (Doses [Carcinogen]: 0.5 PPM AQUEOUS SOLUTION FOR 30 MIN EXPOSURE OF EMBRYOS 21 D AFTER FERTILIZATION, Doses [Promoter]: 0.05% IN DIET FOR 8 WK (STUDY DURATION: 1 YR), Route [Carcinogen]: IMMERSION, Route [Promoter]: ORAL, Species: FISH, Strain/Sex: MT. SHASTA RAINBOW TROUT) “liver: hepatocellular carcinoma or mixed carcinoma or hepatocellular adenoma”.

For the compound `CC(C)CCC[C@@H](C)[C@H]1CC[C@H]2[C@@H]3CC=C4C[C@@H](O)CC[C@]4(C)[C@H]3CC[C@]12C`, where the note is “Carcinogen: N-NITROSOBIS(2-OXOPROPYL)AMINE, 60599-38-4, Doses [Carcinogen]: 70 MG/KG ONCE, Doses [Promoter]: 0, 0.5% IN DIET BEGINNING 2 WK POST CARCINOGEN DOSE AND CONTINUING FOR 16 WK (STUDY DURATION: 18 WK), Route [Carcinogen]: SUBCUTANEOUS, Route [Promoter]: ORAL, Species: HAMSTER, Strain/Sex: SYRIAN/FEMALE”, the outcome is listed as “pancreas: adenocarcinoma”. On to `O=[N+]([O-])c1ccc2ccc3cccc4ccc1c2c34`, for which the outcome (Carcinogen: POLYCHLORINATED BIPHENYLS, 1336-36-3, Doses [Carcinogen]: 2.5 MG/KG ONCE, Doses [Promoter]: 0, 1575 MG/KG IN DMSO ADMINISTERED IN 17 DOSES 3/WK BEGINNING POST CARCINOGEN TREATMENT (STUDY DURATION: 18 WK), Route [Carcinogen]: INTRAPERITONEAL, Route [Promoter]: INTRAPERITONEAL, Species: MOUSE, Strain/Sex: A/J/MALE) is “lung: adenoma and adenocarcinoma”.

Take `Cc1c(C)c2c(c(C)c1O)CCC(C)(CCCC(C)CCCC(C)CCCC(C)C)O2` (centres undefined): for the setting “Carcinogen: 7,12-DIMETHYLBENZ[A]ANTHRACENE, 57-97-6, Doses [Carcinogen]: 10 NMOL IN 0.2 ML ACETONE ONCE, Doses [Promoter]: 0, 80 UMOL IN 0.2 ML ACETONE 2/WK BEGINNING 1 WK POST CARCINOGEN DOSE AND CONTINUING FOR 19 WK (STUDY DURATION: 20 WK), Route [Carcinogen]: DERMAL, Route [Promoter]: DERMAL, Species: MOUSE, Strain/Sex: SENCAR/FEMALE”, the outcome was “skin: papilloma”.

In the case of `Oc1ccc(Cl)cc1`, the outcome under setting [1] is reported as “integumentary system (skin)”. In the case of `NN=C(N)N`, the outcome was “colon: tumor” (Carcinogen: AZOXYMETHANE, Doses [Carcinogen]: 2.5 MG/KG IN DISTILLED WATER 1/WK FOR 10 WK, Doses [Promoter]: 100 MG/KG IN 0.9%, NACL, 3/WK FOR 24 WK ADMINISTERED SIMULTANEOUSLY AND POST CARCINOGEN DOSES (STUDY DURATION: 52 WK), Route [Carcinogen]: SUBCUTANEOUS, Route [Promoter]: INTRAGASTRIC, Species: RAT, Strain/Sex: F344/MALE) and “stomach: adenocarcinoma” (Carcinogen: N-METHYL-N'-NITRO-N-NITROSOGUANIDINE, 70-25-7, Doses [Carcinogen]: 25 UG/ML IN DRINKING WATER FOR 25 WK, Doses [Promoter]: 0, 25 MG/KG BW 1/2 D FOR 25 WK BEGINNING POST CARCINOGEN TREATMENT (STUDY DURATION: 52 WK), Route [Carcinogen]: ORAL, Route [Promoter]: SUBCUTANEOUS, Species: RAT, Strain/Sex: WISTAR/MALE). Consider `Cc1ccc2cc3c(ccc4ccccc43)c3c2c1CC3`, for which the outcome (Carcinogen: N-BIS(2-HYDROXYPROPYL)NITROSAMINE, 53609-64-6, N-ETHYL-N-HYDROXYETHYLNITROSAMINE, 13147-25-6, 3,2'-DIMETHYL-4-AMINOB, Carcinogen: N-BIS(2-HYDROXYPROPYL)NITROSAMINE, 53609-64-6, N-ETHYL-N-HYDROXYETHYLNITROSAMINE, 13147-25-6, 3,2'-DIMETHYL-4-AMINOB, Doses [Carcinogen]: 1000 MG/KG IP IN SALINE ON DAY 1 AND 4, 1500 MG/KG IG IN DISTILLED WATER ON DAY 8 AND 11, 75 MG/KG SC IN CORN OIL ON D, Doses [Carcinogen]: 1000 MG/KG IP IN SALINE ON DAY 1 AND 4, 1500 MG/KG IG IN DISTILLED WATER ON DAY 8 AND 11, 75 MG/KG SC IN CORN OIL ON D, Doses [Promoter]: 0, 0.02% IN DIET BEGINNING 1 WK POST LAST CARCINOGEN DOSE AND CONTINUING FOR 12 WK (STUDY DURATION: 16 WK), Route [Carcinogen]: INTRAPERITONEAL, GAVAGE, SUBCUTANEOUS, Route [Carcinogen]: INTRAPERITONEAL, GAVAGE, SUBCUTANEOUS, Route [Promoter]: ORAL, Species: RAT, Strain/Sex: F344/MALE) is reported as “lung: adenoma or adenocarcinoma”. For `CCCCCCCCCCCCCCCCCCCCCCCCCCCC`, under “Carcinogen: 7,12-DIMETHYLBENZ(A)ANTHRACENE, Doses [Carcinogen]: TOP, Route [Carcinogen]: DERMAL, Route [Promoter]: DERMAL, Species: MOUSE, Strain/Sex: MALE”, the outcome is recorded as “integumentary system (skin)”. Turning to `CCC1(CCCCCCCCCCCCC(=O)OC2C(C)C3(O)C(C=C(CO)CC4(O)C(=O)C(C)=CC43)C3C(C)(C)C23OC(C)=O)OCC(C)(C)N1[O]` (centres undefined), the outcome (Carcinogen: 7,12-DIMETHYLBENZ[A]ANTHRACENE, 57-97-6, Doses [Carcinogen]: 100 NMOL ONCE, Doses [Promoter]: 0, 20 NMOL 2/WK FOR 24 WK BEGINNING 1 WK POST CARCINOGEN DOSE (STUDY DURATION: 25 WK), Route [Carcinogen]: DERMAL, Route [Promoter]: DERMAL, Species: MOUSE, Strain/Sex: NMRI/FEMALE) is on record as “skin: tumor”. With `O=C1C=CC(=O)c2ccccc21`, the outcome (Carcinogen: 7,12-DIMETHYLBENZ[A]ANTHRACENE, 57-97-6, Doses [Carcinogen]: 25 NMOL IN 0.2 ML ACETONE ONCE, Doses [Promoter]: 440, 880, 1760 NMOL/MOUSE 1/WK FOR 30 WK BEGINNING 2 WK POST CARCINOGEN DOSE (STUDY DURATION: 32 WK), Doses [Promoter]: 440, 880, 1760 NMOL/MOUSE 1/WK FOR 30 WK BEGINNING 2 WK POST CARCINOGEN DOSE (STUDY DURATION: 32 WK), Route [Carcinogen]: DERMAL, Route [Promoter]: DERMAL, Species: MOUSE, Strain/Sex: SENCAR/FEMALE) is listed as “skin: papilloma”. Consider `CCCCCCCCCCCC`, for which the outcome under setting [1] is on record as “integumentary system (skin)”. Regarding `C=CCC1(C(C)C)C(=O)NC(=O)NC1=O`, the outcome (Carcinogen: N-NITROSODIETHYLAMINE, 55-18-5, Doses [Carcinogen]: 75 MG/KG BW IN 0.85% SALINE ONCE, Doses [Promoter]: 0, 453 PPM IN DIET FOR DURATION OF STUDY BEGINNING 2 WK POST CARCINOGEN DOSE (STUDY DURATION: 78 WK), Route [Carcinogen]: INTRAPERITONEAL, Route [Promoter]: ORAL, Species: RAT, Strain/Sex: F344/MALE) is reported as “liver: adenoma”.
